Assay results as given in PubChem BioAssay (NCI).
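At the GI50, growth is halved. TGI: total growth inhibition.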

Columns and labels:
Experiment in all cases: DTP human tumour cell line panel, 384-well format
786-0 renal = system: 786-0 renal
A498 renal = system: A498 renal
A549 NSCLC = system: A549 NSCLC
ACHN renal = system: ACHN renal
BT-549 breast = system: BT-549 breast
CAKI-1 renal = system: CAKI-1 renal
CCRF-CEM leukemia = system: CCRF-CEM leukemia
COLO 205 colon = system: COLO 205 colon
DU-145 prostate = system: DU-145 prostate
EKVX NSCLC = system: EKVX NSCLC
HCC-2998 colon = system: HCC-2998 colon
HCT-116 colon = system: HCT-116 colon
HCT-15 colon = system: HCT-15 colon
HL-60(TB) leukemia = system: HL-60(TB) leukemia
HOP-62 NSCLC = system: HOP-62 NSCLC
HOP-92 NSCLC = system: HOP-92 NSCLC
HS 578T breast = system: HS 578T breast
HT29 colon = system: HT29 colon
IGROV1 ovarian = system: IGROV1 ovarian
K-562 leukemia = system: K-562 leukemia
KM12 colon = system: KM12 colon
LOX IMVI melanoma = system: LOX IMVI melanoma
M14 melanoma = system: M14 melanoma
MALME-3M melanoma = system: MALME-3M melanoma
MCF7 breast = system: MCF7 breast
MDA-MB-231 breast = system: MDA-MB-231 breast
MDA-MB-435 melanoma = system: MDA-MB-435 melanoma
MDA-MB-468 breast = system: MDA-MB-468 breast
MOLT-4 leukemia = system: MOLT-4 leukemia
NCI-H226 lung = system: NCI-H226 lung
NCI-H23 lung = system: NCI-H23 lung
NCI-H322M lung = system: NCI-H322M lung
NCI-H460 NSCLC = system: NCI-H460 NSCLC
NCI-H522 lung = system: NCI-H522 lung
NCI/ADR-RES ovarian = system: NCI/ADR-RES ovarian
OVCAR-3 ovarian = system: OVCAR-3 ovarian
OVCAR-4 ovarian = system: OVCAR-4 ovarian
OVCAR-5 ovarian = system: OVCAR-5 ovarian
OVCAR-8 ovarian = system: OVCAR-8 ovarian
PC-3 prostate = system: PC-3 prostate
RPMI-8226 leukemia = system: RPMI-8226 leukemia
RXF 393 renal = system: RXF 393 renal
SF-268 CNS = system: SF-268 CNS
SF-295 CNS = system: SF-295 CNS
SF-539 CNS = system: SF-539 CNS
SK-MEL-28 melanoma = system: SK-MEL-28 melanoma
SK-MEL-5 melanoma = system: SK-MEL-5 melanoma
SK-OV-3 ovarian = system: SK-OV-3 ovarian
SN12C renal = system: SN12C renal
SNB-19 CNS = system: SNB-19 CNS
SNB-75 CNS = system: SNB-75 CNS
SR leukemia = system: SR leukemia
SW-620 colon = system: SW-620 colon
T-47D breast = system: T-47D breast
TK-10 renal = system: TK-10 renal
U251 glioblastoma = system: U251 glioblastoma
UACC-257 melanoma = system: UACC-257 melanoma
UO-31 renal = system: UO-31 renal

Q: For O=C(Nc1cc(F)c(F)cc1C(=O)O)c1ccc(-n2ccnc2)nn1, which GI50 ([…]-0 renal) is on record?
A: > 100 µM

Q: And the TGI (786-0 renal)?
A: > 100 µM

Q: What about the GI50 (A498 renal) of the same compound?
A: > 100 µM

Q: And the TGI (A498 renal)?
A: > 100 µM

Q: And the GI50 (A549 NSCLC)?
A: > 100 µM

Q: And the TGI (A549 NSCLC)?
A: > 100 µM

Q: What about the GI50 (ACHN renal) of the same compound?
A: > 100 µM

Q: What about the TGI (ACHN renal) of the same compound?
A: > 100 µM

Q: What about the GI50 (BT-549 breast) of the same compound?
A: > 100 µM

Q: What about the TGI (BT-549 breast) of the same compound?
A: > 100 µM

Q: What about the GI50 (CAKI-1 renal) of the same compound?
A: > 100 µM

Q: What about the TGI (CAKI-1 renal) of the same compound?
A: > 100 µM

Q: And the GI50 (CCRF-CEM leukemia)?
A: > 100 µM

Q: What about the TGI (CCRF-CEM leukemia) of the same compound?
A: > 100 µM

Q: What about the GI50 (COLO 205 colon) of the same compound?
A: > 100 µM

Q: And the TGI (COLO 205 colon)?
A: > 100 µM

Q: And the GI50 (DU-145 prostate)?
A: > 100 µM

Q: And the TGI (DU-145 prostate)?
A: > 100 µM

Q: And the GI50 (EKVX NSCLC)?
A: > 100 µM

Q: And the TGI (EKVX NSCLC)?
A: > 100 µM

Q: What about the GI50 (HCC-2998 colon) of the same compound?
A: > 100 µM

Q: What about the TGI (HCC-2998 colon) of the same compound?
A: > 100 µM

Q: What about the GI50 (HCT-116 colon) of the same compound?
A: > 100 µM

Q: And the TGI (HCT-116 colon)?
A: > 100 µM

Q: And the GI50 (HCT-15 colon)?
A: > 100 µM

Q: And the TGI (HCT-15 colon)?
A: > 100 µM

Q: And the GI50 (HL-60(TB) leukemia)?
A: > 100 µM

Q: And the TGI (HL-60(TB) leukemia)?
A: > 100 µM

Q: And the GI50 (HOP-62 NSCLC)?
A: > 100 µM

Q: What about the TGI (HOP-62 NSCLC) of the same compound?
A: > 100 µM

Q: What about the GI50 (HOP-92 NSCLC) of the same compound?
A: > 100 µM

Q: What about the TGI (HOP-92 NSCLC) of the same compound?
A: > 100 µM

Q: What about the GI50 (HS 578T breast) of the same compound?
A: > 100 µM

Q: What about the TGI (HS 578T breast) of the same compound?
A: > 100 µM

Q: And the GI50 (HT29 colon)?
A: > 100 µM

Q: And the TGI (HT29 colon)?
A: > 100 µM

Q: And the GI50 (IGROV1 ovarian)?
A: > 100 µM

Q: And the TGI (IGROV1 ovarian)?
A: > 100 µM

Q: And the GI50 (K-562 leukemia)?
A: 50.6 µM

Q: What about the TGI (K-562 leukemia) of the same compound?
A: > 100 µM

Q: What about the GI50 (KM12 colon) of the same compound?
A: > 100 µM

Q: What about the TGI (KM12 colon) of the same compound?
A: > 100 µM

Q: What about the GI50 (LOX IMVI melanoma) of the same compound?
A: > 100 µM

Q: And the TGI (LOX IMVI melanoma)?
A: > 100 µM

Q: And the GI50 (M14 melanoma)?
A: > 100 µM

Q: What about the TGI (M14 melanoma) of the same compound?
A: > 100 µM

Q: What about the GI50 (MALME-3M melanoma) of the same compound?
A: > 100 µM

Q: And the TGI (MALME-3M melanoma)?
A: > 100 µM

Q: And the GI50 (MCF7 breast)?
A: > 100 µM

Q: And the TGI (MCF7 breast)?
A: > 100 µM

Q: And the GI50 (MDA-MB-231 breast)?
A: > 100 µM

Q: And the TGI (MDA-MB-231 breast)?
A: > 100 µM

Q: What about the GI50 (MDA-MB-435 melanoma) of the same compound?
A: > 100 µM

Q: And the TGI (MDA-MB-435 melanoma)?
A: > 100 µM

Q: And the GI50 (MDA-MB-468 breast)?
A: 29.2 µM

Q: And the TGI (MDA-MB-468 breast)?
A: > 100 µM

Q: What about the GI50 (MOLT-4 leukemia) of the same compound?
A: > 100 µM

Q: And the TGI (MOLT-4 leukemia)?
A: > 100 µM

Q: What about the GI50 (NCI-H226 lung) of the same compound?
A: > 100 µM

Q: What about the TGI (NCI-H226 lung) of the same compound?
A: > 100 µM

Q: What about the GI50 (NCI-H23 lung) of the same compound?
A: > 100 µM

Q: And the TGI (NCI-H23 lung)?
A: > 100 µM

Q: What about the GI50 (NCI-H322M lung) of the same compound?
A: > 100 µM

Q: And the TGI (NCI-H322M lung)?
A: > 100 µM

Q: What about the GI50 (NCI-H460 NSCLC) of the same compound?
A: > 100 µM

Q: And the TGI (NCI-H460 NSCLC)?
A: > 100 µM

Q: What about the GI50 (NCI-H522 lung) of the same compound?
A: 65.1 µM

Q: And the TGI (NCI-H522 lung)?
A: > 100 µM

Q: And the GI50 (NCI/ADR-RES ovarian)?
A: > 100 µM

Q: And the TGI (NCI/ADR-RES ovarian)?
A: > 100 µM

Q: What about the GI50 (OVCAR-3 ovarian) of the same compound?
A: > 100 µM

Q: And the TGI (OVCAR-3 ovarian)?
A: > 100 µM

Q: And the GI50 (OVCAR-4 ovarian)?
A: > 100 µM

Q: And the TGI (OVCAR-4 ovarian)?
A: > 100 µM

Q: What about the GI50 (OVCAR-5 ovarian) of the same compound?
A: > 100 µM

Q: And the TGI (OVCAR-5 ovarian)?
A: > 100 µM

Q: What about the GI50 (OVCAR-8 ovarian) of the same compound?
A: > 100 µM

Q: What about the TGI (OVCAR-8 ovarian) of the same compound?
A: > 100 µM

Q: And the GI50 (PC-3 prostate)?
A: > 100 µM

Q: What about the TGI (PC-3 prostate) of the same compound?
A: > 100 µM

Q: What about the GI50 (RPMI-8226 leukemia) of the same compound?
A: > 100 µM

Q: And the TGI (RPMI-8226 leukemia)?
A: > 100 µM

Q: What about the GI50 (RXF 393 renal) of the same compound?
A: > 100 µM

Q: And the TGI (RXF 393 renal)?
A: > 100 µM

Q: And the GI50 (SF-268 CNS)?
A: > 100 µM

Q: What about the TGI (SF-268 CNS) of the same compound?
A: > 100 µM

Q: And the GI50 (SF-295 CNS)?
A: > 100 µM

Q: And the TGI (SF-295 CNS)?
A: > 100 µM

Q: What about the GI50 (SF-539 CNS) of the same compound?
A: > 100 µM

Q: What about the TGI (SF-539 CNS) of the same compound?
A: > 100 µM

Q: What about the GI50 (SK-MEL-28 melanoma) of the same compound?
A: > 100 µM

Q: And the TGI (SK-MEL-28 melanoma)?
A: > 100 µM

Q: What about the GI50 (SK-MEL-5 melanoma) of the same compound?
A: 57.9 µM

Q: What about the TGI (SK-MEL-5 melanoma) of the same compound?
A: > 100 µM

Q: What about the GI50 (SK-OV-3 ovarian) of the same compound?
A: > 100 µM

Q: What about the TGI (SK-OV-3 ovarian) of the same compound?
A: > 100 µM

Q: And the GI50 (SN12C renal)?
A: > 100 µM

Q: And the TGI (SN12C renal)?
A: > 100 µM

Q: What about the GI50 (SNB-19 CNS) of the same compound?
A: > 100 µM

Q: And the TGI (SNB-19 CNS)?
A: > 100 µM

Q: And the GI50 (SNB-75 CNS)?
A: > 100 µM

Q: And the TGI (SNB-75 CNS)?
A: > 100 µM

Q: What about the GI50 (SR leukemia) of the same compound?
A: 23.3 µM

Q: And the TGI (SR leukemia)?
A: 49.7 µM

Q: What about the GI50 (SW-620 colon) of the same compound?
A: > 100 µM

Q: And the TGI (SW-620 colon)?
A: > 100 µM

Q: What about the GI50 (T-47D breast) of the same compound?
A: > 100 µM

Q: And the TGI (T-47D breast)?
A: > 100 µM

Q: And the GI50 (TK-10 renal)?
A: > 100 µM

Q: What about the TGI (TK-10 renal) of the same compound?
A: > 100 µM

Q: And the GI50 (U251 glioblastoma)?
A: > 100 µM

Q: And the TGI (U251 glioblastoma)?
A: > 100 µM

Q: And the GI50 (UACC-257 melanoma)?
A: > 100 µM

Q: And the TGI (UACC-257 melanoma)?
A: > 100 µM

Q: What about the GI50 (UO-31 renal) of the same compound?
A: > 100 µM

Q: And the TGI (UO-31 renal)?
A: > 100 µM
